Consider two substances from US6849405B2, “Translation enhancer element of the human amyloid precursor protein gene” (The Brigham and Women's Hospital, Inc., priority 1997, dated 2005).

Holding throughout (format): cell-based
Assay [1] has as its system APP protein synthesis in primary human fetal astrocytes. Put plainly: Intracellular APP protein synthesis, [35S]-methionine pulse labeling and immunoprecipitation, primary astrocytes. Conditions: 0.5 ng/ml, 16 hours, 30 minute [35S]-methionine labeling. The method, then: Primary human astrocytes were prepared by trypsinization of human fetal brain tissue by a previously described method (Das, et al., Neuron 14; 447 (1995)). Cells were seeded onto poly-L-lysine (10 μg/ml) coated plates and were grown to 70% confluence in DMEM medium, (low glucose) supplemented with 10% fetal bovine serum. In order to eliminate microglia, the cultures were treated with 5 mM H-Leu-O-methylester (Guilian, J. Neurosci. Res. 18:155 (1987)). For immunofluorescence, cells were replated at a density of 100,000 cells per 60-mm petri dish on poly-L-lysine coated glass coverslips and grown for 24 hours in 0.5 ml of medium to allow the cells to attach. The presence of glial fibrillary acidic protein (GFAP) was detected by immunofluorescent staining of formaldehyde fixed cells using a 1:10 dilution of rabbit IgG1 antibody specific for human GFAP. Primary GFAP-specific antibody was added to the coverslips for 30 minutes at room temperature in phosphate buffered saline and 10% goat serum. […] Fluorescence microscopy scored the cells used in the metabolic experiments as 95% pure astrocytes. […]
Intracellular APP protein synthesis was determined in primary astrocytes after plating cells in equal numbers into 8 microtiter wells prior to each treatment (1×10^5 cells per well in 96 well dishes). […]

Another assay relates to Apo-E protein synthesis. Put plainly: Apo-E protein synthesis (internal standard), primary astrocytes. To be noted: primary human astrocytes. How it is done:
Secretion and labeling of APP(s) (protease-nexin-2) from primary astrocytes by IL-1 was measured in a separate set of experiments. Medium from 100 mm dishes (10 ml) of astrocyte cultures was collected after a 2-hour pulse labeling with 200 μCi/ml [^35S]-methionine. APP in 5 ml of precleared medium was immunoprecipitated using a 1:1500 dilution of rabbit polyclonal serum specific for amino acids 595-611 of APP (R1736, D. Selko). Apolipoprotein E was immunoprecipitated from 5 ml of culture supernatant using a 1:200 dilution of a polyclonal antiserum (Chemicon).
In all labeling experiments, immunoprecipitated protein was collected by the binding of antibody-labeled antigen complexes to Protein A Sepharose™ beads. Immunoprecipitated samples were applied to 10-20% tris-tricine gels (Novex) and the samples were electrophoresed in tris-tricine buffer according to the manufacturer's instructions. The gels were fixed with 25% methanol, […] for 1 hour, treated with fluorographic reagent (Amplify, Amersham) for 30 minutes, dried, and exposed to X-omat Kodak film overnight at −80° C.

The test system of assay [2] is APP synthesis in human astrocytoma (U373MG) cells. Put plainly: APP synthesis, [35S]-methionine labeling and immunoprecipitation, astrocytoma cells. Conditions: 0.5 ng/ml, 16 hrs, maximal. The method, then:
Primary human astrocytes were prepared by trypsinization of human fetal brain tissue by a previously described method (Das, et al., Neuron 14; 447 (1995)). Cells were seeded onto poly-L-lysine (10 μg/ml) coated plates and were grown to 70% confluence in DMEM medium, (low glucose) supplemented with 10% fetal bovine serum. In order to eliminate microglia, the cultures were treated with 5 mM H-Leu-O-methylester (Guilian, J. Neurosci. Res. 18:155 (1987)). For immunofluorescence, cells were replated at a density of 100,000 cells per 60-mm petri dish on poly-L-lysine coated glass coverslips and grown for 24 hours in 0.5 ml of medium to allow the cells to attach. The presence of glial fibrillary acidic protein (GFAP) was detected by immunofluorescent staining of formaldehyde fixed cells using a 1:10 dilution of rabbit IgG1 antibody specific for human GFAP. Primary GFAP-specific antibody was added to the coverslips for 30 minutes at room temperature in phosphate buffered saline and 10% goat serum. The secondary antibodies used were goat anti-rabbit IgG conjugated to fluorescein isothiocyanate at a dilution of 1:100 (Boehringer). Fluorescence microscopy scored the cells used in the metabolic experiments as 95% pure astrocytes. […] The U373MG astrocytoma cell line was cultured on 100 mm uncoated dishes to 60-80% confluence in DMEM medium supplemented with 10% fetal bovine serum. […]

As to interleukin-1β [IL-1β], in assay [1], the “increase in the synthesis of intracellular APP” value came to 3 fold. The ApoE protein synthesis entry in the assay on Apo-E protein synthesis is “no increase”. Besides, in assay [2], the “increase in rate of APP synthesis” value was determined as 4.3 fold.

With interleukin-1α [IL-1α], in assay [1], the “increase in the synthesis of intracellular APP” value was found to be 4 fold. The ApoE protein synthesis result with Apo-E protein synthesis is recorded as “no increase”. In addition, in assay [2], the “increase in rate of APP synthesis” value is 2.8 fold.
